# Measurements as given in patent US20190060249A1 (priority 2017, published 2019).
# What was measured:
# ALDH3A2 = ALDH3A2 (Homo sapiens, UniProt P51648); test: ALDH enzymatic assay, recombinant ALDH3A2; assay type: biochemical; details: 5 μg/ml recombinant enzyme, 10 mM acetaldehyde, 20 μM Alda-341
# Description: ALDH enzymatic assay: ALDH1A1, ALDH1A2, 2, 3A1, 3A2, 4A1, 5A1, 7A1 were measured as previously described using 5 μg/ml of recombinant protein (Chen, C. H., Cruz, L. A., and Mochly-Rosen, D. (2015) Pharmacological recruitment of aldehyde dehydrogenase 3A1 (ALDH3A1) to assist ALDH2 in acetaldehyde and ethanol metabolism in vivo. Proceedings of the National Academy of Sciences of the United States of America 112, 3074-3079). […] Assays were conducted in 50 mM NaPPi buffer (pH 7.4) in the presence of 2.5 mM NAD^+ and 10 mM substrate and measured in triplicate at 25° C. Dose response curve fits and EC50's were calculated using GraphPad Prism 7 software.
# [1] = tested on: mouse model of radiation-induced hyposalivation; test: Mouse model of radiation-induced hyposalivation; assay type: in vivo
# Description: In one experiment, mice were irradiated with a single dose of 15 Gy and in a second experiment with 6 Gy/d for 5 d for a total of 30 Gy. […] Starting 8 weeks after radiation, the control and treatment groups were further segmented into four groups.
# On day 5 of the 30 Gy radiation dose, SMG were removed, fixed, and stained for cleaved caspase 3 to determine the extent of apoptosis (FIG. 4E).
# Saliva collection: Female C57/BL-6 mice, 8-10 weeks old, were ordered from Jackson Labs. […] 15 Gy single dose or 30 Gy fractionated over 5 d (6 Gy/d) were delivered to the SMG with the rest of the body lead shielded. Stimulated saliva was measured as described in, Lombaert, I. M., Brunsting, J. F., Wierenga, P. K., Faber, H., Stokman, M. A., Kok, T., Visser, W. H., Kampinga, H. H., de Haan, G., and Coppes, R. P. (2008) Rescue of salivary gland function after stem cell transplantation in irradiated glands. PloS one 3, e2063. Mice were anesthetized with a ketamine (80 mg/kg) and xylazine (16 mg/kg) mixture delivered by intraperitoneal injection and subcutaneously injected with 2 mg/kg pilocarpine. Saliva was collected for 15 minutes. Saliva volume was calculated by assuming […] and was normalized to the mouse body weight by dividing the total collected saliva volume by the mass of the mouse (kg).
# Periodic acid schiff staining and acinar quantification: SMG were removed from mice, fixed in 10% formalin for 24 h, and paraffin-embedded. 10 images per group were taken at random at 30× magnification using a Leica DM6000 B microscope. Acinar regions were quantified using RT_Image software (Graves, E. E., Quon, A., and Loo, B. W., Jr. (2007) RT_Image: an open-source tool for investigating PET in radiation oncology. Technology in cancer research & treatment 6, 111-121). Images were separated into red, green, and blue color channels, blurred using a 20 pixel box filter, and segmented using an intensity contour of 110 with a minimum area of 100 um^2. Acinar area was calculated as a percentage of acinar area relative to the area of the microscopy field.
# Cleaved caspase 3 staining: SMG were removed from mice, fixed in 10% formalin for 24 h, and paraffin-embedded. Sections were stained with Caspase 3 rabbit antibody (Cell Signaling, 9664), 1:200 dilution, and DAPI. Three random images using red and blue filters were taken at 100× magnification with a Leica DM6000 B microscope from each gland (6-8 glands/group) and quantified by counting cleaved caspase-3 positive (red) cells per field.
# RNA-sequencing: Samples were extracted using Qiagen miRNeasy Kit (217084). Extracted samples were assessed for quality using Agilent Pico-RNA bio-analyzer chip (5067-1513). The Smarter Ultra Low Input RNA kit (Clontech, 634848) was used to generate cDNA from total RNA. Amplified cDNA was purified using SPRI Ampure Beads from Beckman Coulter, and quality and quantity were measured using a High Sensitivity DNA chip on an Agilent 2100 Bioanalyzer. cDNA was sheared to an average length of 300 BP using a Covaris S2, and libraries were generated following the Clontech Low Input Library Prep kit (634947). Indexed libraries were pooled and quantitated for sequencing. Sequencing data was generated on an Illumina HiSeq 4000. The processed RNAseq reads were imported into BRB-ArrayTools, an integrated package for the visualization and statistical analysis of gene expression data developed by Dr. Richard Simon and BRB-ArrayTools Development Team. The imported expression values were log2-transformed and subjected to quantile normalization by Robust Multi-chip Average (RMA). Genes that show differential expression between those untreated and irradiated (univariate p-value <0.01) were selected. To identify functional networks and pathways enriched in these significant genes, these genes were analyzed using MetaCore™. For heatmap generation the Clustering function of ArrayTools was used, with experimental samples in fixed grouping and order, and genes ordered by hierarchical clustering.
# [2] = EpCAM+ cells isolated from SMG 2 weeks after 30 Gy
# Chain of ALDH3A2 (P51648 whole entry): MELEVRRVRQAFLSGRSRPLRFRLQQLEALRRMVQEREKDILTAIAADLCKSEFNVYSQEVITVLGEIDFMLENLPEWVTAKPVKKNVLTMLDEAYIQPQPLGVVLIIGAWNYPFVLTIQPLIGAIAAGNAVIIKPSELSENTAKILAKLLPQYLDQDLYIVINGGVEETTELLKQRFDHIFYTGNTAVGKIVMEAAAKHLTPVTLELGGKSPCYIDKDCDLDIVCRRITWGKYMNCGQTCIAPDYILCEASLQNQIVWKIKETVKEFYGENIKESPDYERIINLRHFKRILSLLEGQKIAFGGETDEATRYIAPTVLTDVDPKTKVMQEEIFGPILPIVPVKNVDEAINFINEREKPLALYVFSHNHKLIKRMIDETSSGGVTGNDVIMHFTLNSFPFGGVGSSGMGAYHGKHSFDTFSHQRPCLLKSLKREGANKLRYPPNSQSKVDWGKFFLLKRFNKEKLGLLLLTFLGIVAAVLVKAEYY
smiles,measurement,setting,value
"C=C(C)[C@H]1CC=C(C)CC1 [Alda-341, D-limonene]",catalytic activity of ALDH3A2,ALDH3A2,did not increase
same,saliva production after radiation,"[1]; 10% Alda-341 in chow from 1 w prior to radiation and continuously after, single 15 Gy or 30 Gy (6 Gy/d for 5 d)",retained near baseline saliva production levels
same,"saliva production, Alda-341 stopped","[1]; Alda-341 from 24 h after radiation, stopped 8 weeks after radiation",rapid decline in saliva production
same,"saliva levels, continuous Alda-341","[1]; Alda-341 starting 24 h after the final dose of radiation, continuous, 20 weeks",sustained significantly higher saliva levels over 20 weeks
same,"saliva production, Alda-341 begun late",[1]; Alda-341 treatment begun 8 weeks after radiation,did not show significant improvement in saliva production
same,apoptotic-related gene expression (RNA-sequencing),[1]; [2],a decrease in apoptotic-related gene expression
same,glutathione metabolism (RNA-sequencing),[1]; [2],increased glutathione metabolism
same,immune response (RNA-sequencing),[1]; [2],decreased immune response
same,more acinar cell preservation (PAS staining) vs group that never received Alda-341,"[1]; after 20 weeks, continuous Alda-341",~70%
same,improvement in sphere-forming ability of dissociated SMG vs no treatment,[1]; continuous Alda-341 after radiation,~30 fold
same,number of apoptotic cells (cleaved caspase 3 staining),"[1]; day 5 of the 30 Gy radiation dose, Alda-341 before radiation",reduced the number of apoptotic cells to near non-irradiated levels
same,preservation of acinar area,"[1]; eight weeks after 30 Gy, Alda-341 from 1 w prior to radiation",90%
